The structures appear in SMILES notation.

The assay concerns the target HDAC1 enzyme (recombinant GST-HDAC1) (Homo sapiens (Human), UniProt Q13547). The assay can be described thus: In vitro HDAC assay (BIOMOL fluorescent-based HDAC activity assay), HDAC1. To be noted: read-out: HDAC1 Enzyme Activity IC50. The class given is biochemical.

HDAC1 enzyme (recombinant GST-HDAC1), sequence (Q13547 whole entry): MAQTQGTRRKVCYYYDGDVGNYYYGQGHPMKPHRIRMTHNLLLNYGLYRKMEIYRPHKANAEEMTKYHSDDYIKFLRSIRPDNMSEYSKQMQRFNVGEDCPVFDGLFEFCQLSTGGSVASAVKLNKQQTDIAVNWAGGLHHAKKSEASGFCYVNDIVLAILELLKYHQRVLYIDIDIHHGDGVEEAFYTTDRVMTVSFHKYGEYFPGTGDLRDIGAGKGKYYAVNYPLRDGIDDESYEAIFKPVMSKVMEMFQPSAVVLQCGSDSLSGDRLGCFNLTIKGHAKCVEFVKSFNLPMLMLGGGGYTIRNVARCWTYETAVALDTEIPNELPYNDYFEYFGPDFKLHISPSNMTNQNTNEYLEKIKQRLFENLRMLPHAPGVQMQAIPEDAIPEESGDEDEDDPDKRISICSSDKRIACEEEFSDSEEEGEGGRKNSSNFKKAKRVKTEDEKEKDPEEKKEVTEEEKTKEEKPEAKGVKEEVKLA
Experimental: The assay has been carried out in 96 well format and the BIOMOL fluorescent-based HDAC activity assay has been applied. […] Flur de lys Developer was added and the reaction was incubated for 10 min. Briefly, deacetylation of the substrate sensitizes it to the developer, which then generates a fluorophore (symbol). The fluorophore is excited with 360 nm light and the emitted light (460 nm) is detected on a fluorometric plate reader (Tecan Ultra Microplate detection system, Tecan Group Ltd.).
The analytical software, Prism 3.0 has been used to generate IC50 from a series of data.

In the case of `CCn1c(CNCc2ccccc2)nc2cc(/C=C/C(=O)NO)ccc21` [Compound 64, N-Hydroxy-3-[2-(benzylamino-methyl)-ethyl-1H-benzimidazol-5-yl]-acrylamide], the IC50 (commonly the midpoint of a concentration-inhibition curve) turned out to be 230 nM.
The value for `O=C(/C=C/c1ccc2[nH]c(CCc3ccccc3)nc2c1)NO` [Compound 50, N-Hydroxy-3-(2-phenethyl-1H-benzimidazol-5-yl)-acrylamide] was 173 nM; that for `CN(C)CC(C)(C)Cn1c(CCc2cccnc2)nc2cc(/C=C/C(=O)NO)ccc21` [Compound 86, N-Hydroxy-3-[1-(3-Dimethylamino-2,2-dimethyl-propyl)-2-(2-pyridin-3-yl-ethyl)-1H-benzimidazol-5-yl]-acrylamide] was 400 nM.
The figure for `Cn1c(CNCc2ccccc2)nc2cc(/C=C/C(=O)NO)ccc21` [Compound 60, N-Hydroxy-3-[2-(benzylamino-methyl)-1-methyl-1H-benzimidazol-5-yl]-acrylamide] is 116 nM.
The figure for `CCn1c(Cc2ccccc2)nc2cc(/C=C/C(=O)NO)ccc21` [Compound 92, N-Hydroxy-3-(2-benzyl-1-ethyl-1H-benzimidazol-5-yl)-acrylamide] is 168 nM; for `O=C(/C=C/c1ccc2c(c1)nc(CCc1ccccc1)n2CCCN1CCCC1)NO` [Compound 82, N-Hydroxy-3-[2-phenethyl-1-(3-pyrrolidin-1-yl-propyl)-1H-benzimidazol-5-yl]-acrylamide] it is 304 nM.
`CN(C)CC(C)(C)Cn1c([S+]([O-])Cc2ccccc2)nc2cc(/C=C/C(=O)NO)ccc21` (centres unmarked) [Compound 91]: the IC50 was found to be 30 nM.
The value for `CCn1c(CCCc2c[nH]c3ccccc23)nc2cc(/C=C/C(=O)NO)ccc21` [Compound 93, N-Hydroxy-3-(1-ethyl-2-[3-(1H-indol-3-yl)-propyl]-1H-benzimidazol-5-yl)-acrylamide] was 65 nM; that for `COc1cccc(CCc2nc3cc(/C=C/C(=O)NO)ccc3n2CC(C)(C)CN(C)C)c1` [Compound 94, N-Hydroxy-3-(1-(3-dimethylamino-2,2-dimethyl-propyl)-2-[2-(3-methoxy-phenyl)-ethyl]-1H-benzimidazol-5-yl)-acrylamide] was 52 nM; that for `Cn1c(CNC(=O)Cc2ccccc2)nc2cc(/C=C/C(=O)NO)ccc21` [Compound 54] was 100 nM.
For the compound `CN(C)CCCn1c(CCc2ccccc2)nc2cc(/C=C/C(=O)NO)ccc21` [Compound 63, N-Hydroxy-3-[1-(3-dimethylamino-propyl)-2-phenethyl-1H-benzimidazol-5-yl]-acrylamide], the IC50 came to 162 nM.
Take `O=C(/C=C/c1ccc2c(c1)nc(CCc1ccccc1)n2CCc1ccccc1)NO` [Compound 26, N-Hydroxy-3-(1,2-Diphenethyl-1H-benzimidazol-5-yl]-acrylamide]: the IC50 worked out at 876 nM.
On to `Cn1c(CCCc2ccccc2)nc2cc(/C=C/C(=O)NO)ccc21` [Compound 52, N-Hydroxy-3-[1-methyl-2-(3-phenyl-propyl)-1H-benzimidazol-5-yl]-acrylamide], for which the concentration for half-maximal inhibition (IC50) is 160 nM.
The figure for `Cn1cnc2cc(/C=C/C(=O)NO)ccc21` [Compound 49, N-Hydroxy-3-(1-methyl-1H-benzimidazol-5-yl)-acrylamide] is 1400 nM; for `CCn1c(CCCOc2ccccc2)nc2cc(/C=C/C(=O)NO)ccc21` [Compound 96, N-Hydroxy-3-[1-ethyl-2-(3-phenoxy-propyl)-1H-benzimidazol-5-yl]-acrylamide] it is 125 nM.
The figure for `CCn1c(CCNCc2ccccc2)nc2cc(/C=C/C(=O)NO)ccc21` [Compound 74, N-Hydroxy-3-[2-(2-benzylamino-ethyl)-1-ethyl-1H-benzimidazol-5-yl]-acrylamide] is 371 nM; for `CN(C)CCCCn1c(CCc2ccccc2)nc2cc(/C=C/C(=O)NO)ccc21` [Compound 57, N-Hydroxy-3-[1-(4-dimethylamino-butyl)-2-phenethyl-1H-benzimidazol-5-yl]-acrylamide] it is 153 nM.
